These results are taken from patent publication US7572606B1 (Nereus Pharmaceuticals, Inc., priority 2005, dated 2009).

By EC50 is commonly meant the concentration needed to bring the measured effect to its halfway point. The inhibition is the change of the read-out against control, counted positive when it falls.

Each structure is given as a SMILES string. Several values for one entry are separate records, joined by “and”; a condition that tells them apart may be missing. Equal values may be shown once. Entries after “also recorded” stand apart in the source; their conditions may differ. Where only a bound is given, the exact number is not on record here.

For data set [1], the system named is HL-60/MX2. Put plainly: Cell growth inhibition, resazurin, 48 h. Conditions: for EC50: HL-60/MX2, 48 h drug exposure. Here is the method:
(§1) The DNA binding agent Mitoxantrone was included as a control, as HL-60/MX2 cells are reported to be resistant to this chemotherapeutic agent (Harker W. G. et al. 1989).
(§2) Concentrations ranging from 6.32 μM to 2 nM were tested for II-2 and II-4.
In general terms: Resazurin is reduced to fluorescent resorufin, in cell work by metabolically active cells.

Data set [2] deals with HL-60. Put plainly: Cell growth inhibition, resazurin, 48 h. The note with it: for EC50: HL-60, 48 h drug exposure. As to the method:
as §1, §2

Data set [3] deals with T1, 20S proteasome chymotrypsin-like activity in PC-3 cells (Homo sapiens, UniProt P28074).
T1 construct: PC-3 (ATCC, CRL-1435), the human prostate cancer cell line; host or cells: PC-3
T1 sequence (P28074 60-263): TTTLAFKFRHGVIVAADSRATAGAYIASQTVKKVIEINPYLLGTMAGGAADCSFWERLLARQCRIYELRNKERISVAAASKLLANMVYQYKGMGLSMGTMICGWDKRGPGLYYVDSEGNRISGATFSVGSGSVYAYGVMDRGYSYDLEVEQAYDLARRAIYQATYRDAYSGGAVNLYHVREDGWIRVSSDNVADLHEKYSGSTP
Put plainly: Chymotrypsin-like activity of 20S proteasomes in treated cells. In kind it is cell-based. Conditions: PC-3, read-out: % inhibition of the chymotrypsin-like activity of 20S proteasomes in PC-3 cell lysates, 1 hr; for inhibition at 0.01 µM: 10 nM; for inhibition at 0.1 µM: 100 nM; for inhibition at 1 µM: 1,000 nM; for inhibition at 10 µM: 10,000 nM. As to the method: PC-3 (ATCC, CRL-1435), the human prostate cancer cell line, was cultured in F12K medium supplemented with 2 mM L-glutamine, 100 units/ml penicillin, 100 μg/ml streptomycin and 10% heat inactivated fetal bovine serum at 37° C., 5% CO2 and 95% humidified air. […] DMSO was used as the vehicle control at a final concentration of 0.1%. Following 1 hr incubation of PC-3 cells with the compounds, the cells were washed 3× with ice-cold 1×Dulbecco's Phosphate-Buffered Saline (DPBS, Mediatech, Herndon, Va.). […] Cell debris was pelleted by centrifugation at 14,000 rpm for 10 min, 4° C. and supernatants (=cell lysates) were transferred to a new tube. Protein concentration was determined by the BCA protein assay kit (Pierce Biotechnology, Rockford, Ill.). […] The total amount of protein used for each assay was 20 μg. The final concentration of Suc-LLVY-AMC and DMSO was 20 μM and 0.2%, respectively. Results are presented as the percent inhibition of the 20S proteasome chymotrypsin-like activity relative to the DMSO control.

Data set [4] relates to PC-3. Put plainly: Cell growth inhibition, resazurin, 48 h.
Data set [5] has as its system RPMI 8226. The experiment in a line: Cell growth inhibition, resazurin, 48 h. The note with it: for EC50: Homo sapiens, RPMI-8226, 48 h, RPMI 8226, 48 h drug exposure; for % cytotoxicity: RPMI 8226. In short, it runs like this: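 RPMI 8226 cells seeded at 2×10^4/well in medium with 10% or 1% FBS and treated in triplicate with serial dilutions made in 1% or 10% FBS medium (Formula II-18 final 2 μM to 630 pM). Growth read by resazurin after 48 h.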

In data set [6] the test system is U266. The experiment in a line: Cell growth inhibition, resazurin, 48 h. The data set is classed as cell-based, human. Conditions: U266, 48 h drug exposure.
Data set [7] relates to PARP and Pro-Caspase 3 in RPMI 8226 cells. Put plainly: PARP and Pro-Caspase 3 cleavage, western blot. The data set is classed as cell-based, human. Conditions: 100 nM for 0, 8 or 24 hours; varying concentrations for 8 hours. As to the method: (§3) Total protein lysates were made and 20 μg of the lysates were then resolved under reducing/denaturing conditions and blotted onto nitrocellulose. The blots were then probed with anti-PARP or anti-caspase 3 antibodies followed by stripping and reprobing with an anti-actin antibody.
25 μg of the lysates were then resolved under reducing/denaturing conditions and blotted onto nitrocellulose. The blots were then probed with anti-PARP or anti-caspase 3 antibodies followed by stripping and reprobing with an anti-actin antibody.

Data set [8] concerns PARP and Pro-Caspase 3 in PC-3 cells. Put plainly: PARP and Pro-Caspase 3 cleavage, western blot. In kind it is cell-based, human. The note with it: 100 nM for 0, 8 or 24 hours. As to the method:
as §3
(In general: A western blot detects proteins with antibodies after separation by electrophoresis.)

Data set [9] can be described thus: Maximum Tolerated Dose (MTD) determination. The data set is classed as in vivo, female BALB/c mice. The source says: In vivo studies were designed to determine the MTD of Salinosporamide A when administered intravenously to female BALB/c mice.
Animals were observed daily for clinical signs and were weighed individually twice weekly until the end of the experiment (maximum of 14 days after the last day of dosing).

In data set [10] the test system is LPS-induced plasma TNF. Put plainly: Inhibition of in vivo LPS-induced TNF. Details: species or system male Swiss Webster mice. The note with it: 0.125 or […] i.v., 30 minutes post-LPS (2 mg/kg i.p.). As to the method:
The following methods outline the protocol design for these studies.
Male Swiss Webster mice (12/group weighing 20-25 g) were injected with LPS (2 mg/kg) by the i.p. route. […] Ninety minutes after LPS injection, the mice were anesthetized with Isoflurane and bled by cardiac puncture to obtain plasma. Remaining blood pellet was then resuspended in 500 μL of PBS to wash away residual serum proteins and centrifuged again. Supernatant was removed and blood pellet frozen for analysis of proteasome inhibition in packed whole blood lysate.
Animals were dosed i.v. with 4 ml/kg. A vehicle control solution was also prepared by making the same 1:160 dilution with 100% DMSO into 10% solutol solution giving a final concentration of 9.375% solutol in water and 0.625% DMSO. Measurements of plasma TNF were performed using the Biosource mTNF Cytoset kit (Biosource Intl., Camarillo, Calif.; catalog # CMC3014) according to manufacturer's instructions. Samples were diluted 1:60 for the assay.

Data set [11] deals with HL-60(TB). Conditions: Leukemia.

Regarding `CC[C@H]1C(=O)N[C@@]2([C@@H](O)[C@@H]3C=CCCC3)C(=O)O[C@@]12C` [Formula II-17], the EC50 in [1] (Homo sapiens, HL60/MX2, 48 h) is above 20000 nM. Besides, in data set [2] (Homo sapiens, HL-60, 48 h), the EC50 is above 20000 nM. Besides, in [3], the inhibition at 0.01 µM stood at 16%, the inhibition at 0.1 µM was 26%, the inhibition at 1 µM amounted to 49% and the inhibition at 10 µM turned out to be 79%. The compound also showed an EC50 in data set [4] (Homo sapiens, PC-3, 48 h) above 20000 nM.
`C[C@H]1C(=O)N[C@@]2([C@@H](O)[C@@H]3C=CCCC3)C(=O)O[C@@]12C` [Formula II-20]: the EC50 in data set [5] was 8510 ± 3260 nM. Moreover, the midpoint of the response in data set [6] (Homo sapiens, U-266, 48 h), the EC50, lay at 310 nM. This compound gave an EC50 in data set [6] of 442 nM. Besides, in [3], the inhibition at 0.01 µM came to 38%, the inhibition at 0.1 µM came out at 57%, the inhibition at 1 µM came out at 71% and the inhibition at 10 µM came out at 90%.
Consider `C[C@@]12OC(=O)[C@]1([C@@H](O)[C@@H]1C=CCCC1)NC(=O)[C@@H]2CCCl` [Formula II-16, Salinosporamide A], for which the EC50 in data set [5] was 8.6 ± 1.9 nM; in data set [6] (Homo sapiens, U-266, 48 h) it was 4.7 ± 0.7 nM; in [1], 25 nM; in [1] (Homo sapiens, HL60/MX2, 48 h) it was 28 nM; in data set [2], 30 nM; in data set [2] (Homo sapiens, HL-60, 48 h) it was 27 nM. Moreover, a half-maximal response in [4] (PC-3, 48 h drug exposure) (EC50) required 64 ± 26 nM. The “% cytotoxicity” value in data set [5] (listed as II-16) is 94 ± 0%; in data set [5] (listed as Salinosporamide A) it was 94 ± 1%; in [1] (HL-60/MX2), 84% and 89%; in [2] (HL-60) it was 88% and 91%; in data set [4] (PC-3) it was 88% and 89%. The “cleavage of PARP and Pro-Caspase 3” value was “cleavage of PARP and Pro-caspase 3 in a time-dependent manner; also recorded: dose-dependent cleavage of both PARP and Pro-Caspase 3” in data set [7]; “cleavage of PARP is noticeable at 24 hours” in data set [8]. Further, the well tolerated dose entry in [9] (i.v. daily for five consecutive days) is listed as “up to 0.1 mg/kg”. Also, in data set [9] (single intravenous dose), the tolerated dose result is reported as “up to 0.25 mg/kg”. Besides, the “reduction of LPS-induced plasma TNF levels” value in [10] is reported as “approximately 65%”. The “Log10 G150” value in data set [11] is below -8.00 Molar. For the same compound, in data set [11], the “Log10 TGI” value was -4.32 Molar.
